Measurements: patent US10786690B2, “Amide derivatives of polycaffeoylquinic acids, process for producing same and uses thereof” (TEMISIS, priority 2016, dated 2020)

Key:
[1] = tested on: Normal Human Epidermal Keratinocytes (NHEKs); assay: Microscopic observation of NHEK cell survival 48 h after inflammatory treatment; format: cell-based; conditions: for Result at 48 h: cell survival: NHEK cultures 48 h after inflammatory treatment (10 ng/mL PMA + 2 μM calcium ionophore A23187), microscopic observation; for effect on cell survival / cellular protection against inflammation: NHEK cultures 48 h after inflammatory treatment, summary in words
Method: The cells, treated and not treated by the compounds to be tested, were observed under an optical microscope 48 h after the following inflammatory treatment: 10 ng/mL PMA/H2O+2 μM calcium ionophore A23187/DMSO.
NHEKs were brought into contact or not with the compounds to be tested. After 2 h, the cells underwent or not an inflammation treatment (10 ng/mL PMA/H2O+2 μM calcium ionophore A23187/DMSO).
The cells were observed under an optical microscope 48 h after the inflammatory treatment.

LTB4 = LTB4 production by NHEKs in the inflammatory state (arachidonic acid + calcium ionophore), ELISA; format: cell-based, human; conditions: arachidonic acid 1 μM + calcium ionophore A23187 2 h, compounds 50 μM, NDGA 2 μM, relative to induced control
Method: (§1) The study was carried out on Normal Human Epidermal Keratinocytes (NHEKs) (Lonza, CC-2507, origin: foreskin) in monolayer culture in Epilife medium (Invitrogen, M-EPI-500-A) containing the components of the Human Keratinocyte Growth Supplement (HKGS) mixture (Invitrogen, S-001-K) added separately, except hydrocortisone having anti-inflammatory properties.
The induction of LTB4 production having a very fast kinetics, the scheme was adapted. In this case, the inflammatory state was induced for 2 h by applying arachidonic acid (a.a./1 μM/ethanol) combined with calcium ionophore A23187 (2 μM/DMSO). Nordihydroguaiaretic acid (NDGA) was used as reference molecule (2 μM/ethanol).
(§2) The effect of the compounds was studied by applying them to the keratinocyte culture medium 2 h prior to induction of the inflammatory state as well as during induction (2 h for LTB4, 24 h for IL-8, PGE2, IL-6 and TNF-α).
(§3) Each condition was carried out in triplicate cultures and the supernatants were recovered at the end of the various treatments.
(§4) Quantification of the various inflammatory mediators was carried out with specific kits, based on a standard curve, according to the instructions provided by the kits' suppliers, R&D Systems and Cayman Chemical.
(§5) Before induction of the inflammatory state, the NHEKs were treated with the compounds and reference molecules for 2 h. The inflammatory state was then induced according to the conditions described in the methodology section, the culture supernatants were collected, and the various inflammatory mediators were quantified by the ELISA technique.
The effects of the compounds on LTB4 production are shown in FIG. 8 and are expressed as a percentage of the treatment with arachidonic acid (a.a.) combined with calcium ionophore A23187 set at 100%.

PGE2 = PGE2 production by NHEKs in the inflammatory state (PMA), ELISA; format: cell-based, human; conditions: PMA 10 ng/ml 24 h, compounds 50 μM, indomethacin 10 μg/ml, relative to PMA induced control (100%)
Method: as §1
For the quantification of IL-8 and PGE2, the inflammatory state of the NHEKs in culture was induced by treatment with PMA (phorbol myristate acetate/10 ng/ml/H2O) for 24 h. Induction of IL-6 was achieved by treatment with PMA (10 ng/ml/H2O) combined with calcium ionophore A23187 (2 μM/DMSO) in medium containing calcium at a concentration of 0.8 mM. TNF-α secretion was induced by a combination of PMA (10 ng/ml/H2O) and calcium ionophore A23187 (2 μM/DMSO) applied for 24 h (TNF-α) in medium containing 0.06 mM calcium. The reference molecules used are dexamethasone (10 μM/H2O) and indomethacin (10 μg/ml/ethanol).
as §2, §3, §4, §5
The effect of the compounds on PGE2 production is presented in FIG. 5 and is expressed as a percentage of the PMA treatment set at 100%.

IL-6 = IL-6 production by NHEKs in the inflammatory state (PMA + calcium ionophore, 0.8 mM Ca2+), ELISA; format: cell-based, human; conditions: PMA + calcium ionophore A23187, 0.8 mM Ca2+, compounds 50 μM, dexamethasone 10 μM, relative to induced control
Method: as §1
For the quantification of IL-8 and PGE2, the inflammatory state of the NHEKs in culture was induced by treatment with PMA (phorbol myristate acetate/10 ng/ml/H2O) for 24 h. […]
as §4, §5
The effect of the compounds on IL-6 production by NHEKs in the inflammatory state is shown in FIG. 6 and is expressed as a percentage of the treatment with PMA combined with calcium ionophore A23187 (under high-calcium conditions: 0.8 mM Ca2+).

TNF-α = TNF-α production by NHEKs in the inflammatory state (PMA + calcium ionophore, 0.06 mM Ca2+), ELISA; format: cell-based, human; conditions: PMA + calcium ionophore A23187 24 h, compounds 50 μM, dexamethasone 10 μM, relative to induced control
Method: as §1
(§6) For the quantification of IL-8 and PGE2, the inflammatory state of the NHEKs in culture was induced by treatment with PMA (phorbol myristate acetate/10 ng/ml/H2O) for 24 h. Induction of IL-6 was achieved by treatment with PMA (10 ng/ml/H2O) combined with calcium ionophore A23187 (2 μM/DMSO) in medium containing calcium at a concentration of 0.8 mM. […]
as §4
as §5, with “technique. […]” for “technique.”

IL-8 = IL-8 production by NHEKs in the inflammatory state (PMA), ELISA; format: cell-based, human; conditions: PMA 10 ng/ml 24 h, compounds 50 μM, dexamethasone 10 μM, relative to PMA induced control (100%)
Method: as §1, §6, §4
as §5, with “technique. […]” for “technique.”

Compound | Result at 48 h: cell survival [1] | effect on cell survival / cellular protection against inflammation [1] | LTB4 production (LTB4) | PGE2 production (PGE2) | IL-6 production (IL-6) | TNF-α production (TNF-α) | IL-8 production (IL-8)
O=C(/C=C/c1ccc(O)c(O)c1)O[C@@H]1[C@H](O)C[C@@](O)(C(=O)O)C[C@H]1OC(=O)/C=C/c1ccc(O)c(O)c1 [PAT964, 3,4-O-Dicaffeoylquinic] | 10% cell survival | little or no effect on cell survival | – | – | – | – | –
CC(Cc1ccc(O)c(O)c1)C(C)Cc1ccc(O)c(O)c1 (stereo not drawn) [NDGA, Nordihydroguaiaretic acid, reference compound] | – | – | very highly significantly inhibits | – | – | – | –
O=C(/C=C/c1ccc(O)c(O)c1)O[C@H]1[C@H](O)C[C@](O)(C(=O)O)C[C@H]1OC(=O)/C=C/c1ccc(O)c(O)c1 [PAT967, 4,5-O-Dicaffeoylquinic] | 10% cell survival | little or no effect on cell survival | – | very highly significantly decrease | – | – | –
O=C(/C=C/c1ccc(O)c(O)c1)O[C@@H]1C[C@](O)(C(=O)O)C[C@@H](OC(=O)/C=C/c2ccc(O)c(O)c2)[C@H]1O [PAT965, 3,5-O-Dicaffeoylquinic] | 10% cell survival | little or no effect on cell survival | – | – | – | – | –
C[C@@H]1C[C@H]2[C@@H]3CCC4=CC(=O)C=C[C@]4(C)[C@@]3(F)[C@@H](O)C[C@]2(C)[C@@]1(O)C(=O)CO [dexamethasone] | 10% cell survival | – | – | – | – | – | –
COc1ccc2c(c1)c(CC(=O)O)c(C)n2C(=O)c1ccc(Cl)cc1 [indomethacin, reference compound] | – | – | – | reduces this PGE2 production in the culture supernatants to an almost undetectable level | – | – | –
CCCCCCCCCCCCNC(=O)[C@]1(O)C[C@@H](OC(=O)/C=C/c2ccc(O)c(O)c2)[C@@H](O)[C@H](OC(=O)/C=C/c2ccc(O)c(O)c2)C1 [PAT1648, (2E,2′E)-((1R,2S,3R,5S)-5-(dodecylcarbamoyl)-2,5-dihydroxycyclohexane-1,3-diyl) bis(3-(3,4-dihydroxyphenyl) acrylate)] | Confluent culture: 100% | strong cellular protection against inflammation | block/decrease, in a very highly significant manner | very highly significantly decrease | largest decreases and are more effective than dexamethasone itself | most marked effects and are more effective than dexamethasone itself | inhibit/reduce IL-8 production to the baseline level
CCCCNC(=O)[C@]1(O)C[C@@H](OC(=O)/C=C/c2ccc(O)c(O)c2)[C@@H](O)[C@H](OC(=O)/C=C/c2ccc(O)c(O)c2)C1 [PAT1658, (2E,2′E)-((1R,2S,3R,5S)-5-(butylcarbamoyl)-2,5-dihydroxycyclohexane-1,3-diyl) bis(3-(3,4-dihydroxyphenyl)acrylate)] | 80% cell survival | strong cellular protection against inflammation | block/decrease, in a very highly significant manner | very highly significantly decrease | – | – | –
